Calls of active or inactive are those of the source.
Columns and labels:
Leucine aminopeptidase = molecular target: T1, Leucine aminopeptidase (Plasmodium falciparum 3D7, UniProt Q8IL11); experiment: P. falciparum M17LAP inhibitors, primary screen, biochemical, fluorogenic H-Leu-NHMec substrate, 1536-well (AID 1619); format: functional
T1 sequence (Q8IL11 whole entry): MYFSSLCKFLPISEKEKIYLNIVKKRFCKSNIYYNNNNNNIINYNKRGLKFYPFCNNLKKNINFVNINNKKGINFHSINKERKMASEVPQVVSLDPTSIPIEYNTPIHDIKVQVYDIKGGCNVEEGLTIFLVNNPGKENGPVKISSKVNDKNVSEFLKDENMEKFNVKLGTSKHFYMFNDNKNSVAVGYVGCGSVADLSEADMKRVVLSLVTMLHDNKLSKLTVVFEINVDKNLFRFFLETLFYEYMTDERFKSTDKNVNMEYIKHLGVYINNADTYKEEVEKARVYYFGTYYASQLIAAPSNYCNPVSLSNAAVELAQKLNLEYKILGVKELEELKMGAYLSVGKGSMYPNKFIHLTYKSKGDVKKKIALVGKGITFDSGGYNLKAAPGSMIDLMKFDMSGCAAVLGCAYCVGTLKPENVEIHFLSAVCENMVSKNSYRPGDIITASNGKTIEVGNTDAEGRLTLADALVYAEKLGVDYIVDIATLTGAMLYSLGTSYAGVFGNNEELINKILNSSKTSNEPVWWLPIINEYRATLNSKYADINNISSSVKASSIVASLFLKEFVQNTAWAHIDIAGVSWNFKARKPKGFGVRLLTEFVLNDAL

[1] = cytotoxicity in HPDE-C7 cells, cell-based, fluorescence, HTS (AID 430); format: functional; details: Homo sapiens
[2] = inhibitors of intracellular T. cruzi replication, confirmation, NIH3T3 host cells, beta-gal luminescence (AID 2044); format: functional, cell-based;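 also: intracellular parasites grown in NIH/3T3 mouse fibroblasts as host cells; luminescent beta-galactosidase reporter signal from transgenic T. cruzi replicating inside host cells; inhibitors lower the luminescence signal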
[3] = microbe, parasite or virus in culture; format: functional; details: Mycobacterium tuberculosis
[4] = cytotoxicity in KRAS-transformed pancreatic duct cells, primary screen, cell-based, fluorescence, HTS (AID 431); format: functional; details: Homo sapiens;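 also: cell line used: HPDE-C7K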
[5] = cytotoxicity toward NIH3T3 fibroblasts, dose response, counter-screen, cell-based, ATP luminescence, mouse fibroblasts (AID 2010); format: functional;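 also: cells exposed to compound for about 90 hours before reading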
Prothrombin = Prothrombin (Homo sapiens, UniProt P00734); experiment: Thrombin 1536 HTS Dose Response Confirmation. [Related pubchem assays: 1046 (Thrombin 1536 HTS; hits were confirmed in this assay)]; format: functional
[6] = molecular target: T2, Ubiquitin-conjugating enzyme E2 N (Homo sapiens, UniProt P61088); format: functional;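 also: Dose-response confirmation in a TR-FRET assay detecting UBC13-driven polyubiquitin chain formation, inhibition measured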
T2 sequence (P61088 whole entry): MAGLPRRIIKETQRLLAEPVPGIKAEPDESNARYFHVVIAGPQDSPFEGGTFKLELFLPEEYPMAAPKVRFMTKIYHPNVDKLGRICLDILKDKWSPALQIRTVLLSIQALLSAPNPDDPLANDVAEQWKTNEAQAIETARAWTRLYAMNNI

[7] = molecular target: T3, Microphthalmia-associated transcription factor (Homo sapiens, UniProt O75030); experiment: TRPM1 promoter luciferase signal decrease, dose response, MITF inhibitor project, cell-based, SK-MEL-5, cherry-picked, set 3 (AID 493073); format: functional
T3 sequence (O75030 whole entry): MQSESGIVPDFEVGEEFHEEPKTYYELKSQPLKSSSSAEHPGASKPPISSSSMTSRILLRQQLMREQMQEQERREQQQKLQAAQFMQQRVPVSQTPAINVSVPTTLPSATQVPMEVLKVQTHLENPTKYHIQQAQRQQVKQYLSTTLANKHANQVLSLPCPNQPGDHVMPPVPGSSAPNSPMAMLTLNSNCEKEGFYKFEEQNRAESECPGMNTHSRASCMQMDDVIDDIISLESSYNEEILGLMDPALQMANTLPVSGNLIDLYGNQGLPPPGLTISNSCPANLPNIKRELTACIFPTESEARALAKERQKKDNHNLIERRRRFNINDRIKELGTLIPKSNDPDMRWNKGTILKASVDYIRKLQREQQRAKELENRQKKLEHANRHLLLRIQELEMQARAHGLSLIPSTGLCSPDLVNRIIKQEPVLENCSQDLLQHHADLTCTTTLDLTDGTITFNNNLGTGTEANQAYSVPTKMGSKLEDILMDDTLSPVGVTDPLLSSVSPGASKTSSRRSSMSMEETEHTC

[8] = molecular target: T4, Replicative DNA helicase DnaB (Mycobacterium tuberculosis, UniProt P9WMR3); experiment: DnaB intein splicing inhibitors, dose response, biochemical, cell-free fluorescence (AID 449749); format: functional
T4 sequence (P9WMR3 whole entry): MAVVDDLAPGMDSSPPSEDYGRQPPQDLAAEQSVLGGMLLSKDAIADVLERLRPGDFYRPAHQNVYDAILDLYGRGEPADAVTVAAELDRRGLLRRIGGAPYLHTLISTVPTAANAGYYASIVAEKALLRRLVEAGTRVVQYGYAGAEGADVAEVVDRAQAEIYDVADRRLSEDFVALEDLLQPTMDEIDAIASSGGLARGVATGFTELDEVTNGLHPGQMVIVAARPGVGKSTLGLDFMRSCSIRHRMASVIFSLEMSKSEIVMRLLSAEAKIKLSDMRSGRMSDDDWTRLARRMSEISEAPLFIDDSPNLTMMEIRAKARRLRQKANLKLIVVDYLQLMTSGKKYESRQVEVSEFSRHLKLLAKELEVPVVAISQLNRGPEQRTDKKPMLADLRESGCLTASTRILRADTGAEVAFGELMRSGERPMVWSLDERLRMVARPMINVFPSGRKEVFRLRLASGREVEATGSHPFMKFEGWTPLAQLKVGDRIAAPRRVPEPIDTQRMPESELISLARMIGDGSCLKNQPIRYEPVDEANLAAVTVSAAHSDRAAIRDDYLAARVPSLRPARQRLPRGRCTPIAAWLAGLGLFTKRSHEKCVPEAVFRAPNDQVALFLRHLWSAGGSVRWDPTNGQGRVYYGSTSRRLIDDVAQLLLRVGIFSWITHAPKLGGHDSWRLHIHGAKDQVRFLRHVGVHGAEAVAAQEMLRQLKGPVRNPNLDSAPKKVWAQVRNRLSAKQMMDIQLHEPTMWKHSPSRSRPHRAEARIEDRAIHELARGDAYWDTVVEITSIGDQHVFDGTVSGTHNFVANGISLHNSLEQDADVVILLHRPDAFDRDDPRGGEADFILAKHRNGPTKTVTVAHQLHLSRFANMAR

Protein RecA = molecular target: T5, Protein RecA (Mycobacterium tuberculosis, UniProt P9WHJ3); experiment: Fluorescence Cell-Free Homogeneous Dose Retest to Identify Inhibitors of RecA-Intein Splicing Activity. [Related pubchem assays (depositor defined):AID2097, AID2223, AID489010, AID492950]; format: functional
T5 sequence (P9WHJ3 whole entry): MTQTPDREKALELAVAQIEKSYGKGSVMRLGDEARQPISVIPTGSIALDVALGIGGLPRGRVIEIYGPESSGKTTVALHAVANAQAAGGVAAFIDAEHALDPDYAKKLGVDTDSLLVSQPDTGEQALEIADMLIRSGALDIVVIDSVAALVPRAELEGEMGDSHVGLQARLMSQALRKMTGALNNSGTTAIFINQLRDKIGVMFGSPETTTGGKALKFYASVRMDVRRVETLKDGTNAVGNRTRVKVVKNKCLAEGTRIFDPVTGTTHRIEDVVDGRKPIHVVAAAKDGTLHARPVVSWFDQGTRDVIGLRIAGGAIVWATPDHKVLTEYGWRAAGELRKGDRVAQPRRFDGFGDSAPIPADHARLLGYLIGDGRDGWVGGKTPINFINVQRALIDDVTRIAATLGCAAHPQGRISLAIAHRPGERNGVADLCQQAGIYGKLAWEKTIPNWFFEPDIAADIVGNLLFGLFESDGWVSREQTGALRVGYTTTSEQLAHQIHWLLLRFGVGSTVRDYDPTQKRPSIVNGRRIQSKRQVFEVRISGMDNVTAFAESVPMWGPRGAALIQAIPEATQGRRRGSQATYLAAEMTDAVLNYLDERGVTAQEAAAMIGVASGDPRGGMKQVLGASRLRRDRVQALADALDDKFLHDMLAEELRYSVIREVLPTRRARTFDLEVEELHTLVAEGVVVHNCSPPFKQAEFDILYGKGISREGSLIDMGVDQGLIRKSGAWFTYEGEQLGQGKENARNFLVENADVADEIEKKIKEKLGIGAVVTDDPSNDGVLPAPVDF

INS1 = experiment: beta cell apoptosis inhibitors, cytokine rescue, dose response, luminescence, retest (AID 449756); format: functional, cell-based; details: Rattus norvegicus;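 also: cell death triggered by IL-1 beta plus TNF-alpha plus IFN-gamma mixture; protective hits raise ATP signal compared with cytokine alone wells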
[9] = Shn3 3'UTR reporter inhibitors, dose response, cell-based, Clone20 osteoblasts, firefly luciferase, cherry-picked (AID 624132); format: functional;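 also: firefly luciferase luminescence from reporter carrying the Shn3 3'UTR in osteoblasts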
[10] = HepG2 cell cytotoxicity, dose response, cytotoxicity control for Shn3 inhibitor project, CellTiter-Glo, cherry-picked (AID 624134); format: functional, cell-based
[11] = control 3'UTR Renilla luciferase suppression, dose response, counter-screen for Shn3 inhibitor project, cell-based, Clone20-Shn3RL, cherry-picked (AID 624133); format: functional
[12] = NIH-3T3 fibroblast cytotoxicity, dose response, cytotoxicity control, cell-based, fluorescence, Alamar Blue, secondary assay (AID 2327); format: functional;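 also: NIH-3T3 mouse fibroblasts cultured with fluconazole at 8 µg/mL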
[13] = C. albicans growth with fluconazole, confirmation, fluorescence, retest (AID 2467); format: functional, cell-based

COc1ccc(NC(=O)C(CC(=O)O)Cc2ccccc2)cc1 (centres undefined)
IC50 (Leucine aminopeptidase): 28.1 µM (active)

COc1ccccc1C(=O)N=C(NC(=O)c1ccccc1OC)Nc1nc2ccccc2o1
EC50 [1]: 4.28 µM (active)
EC50 [2]: 1.38 µM (active)
CC50 [3]: 14 µM (active)
EC50 [4]: 5.05 µM (active)
EC50 [5]: > 60 µM (not active)

O=C(N/N=C/c1ccccc1[N+](=O)[O-])c1ccc2[nH]cnc2c1
IC50 (Prothrombin): 2.34 µM (active)

O=C(NCC1CCCCC1)C1(CC2CC(c3cccc(Br)c3)=NO2)CCNCC1 (centres undefined)
IC50 [6]: > 20 µM (inactive)
AC50 [7]: 18.1 µM (active)

O=C1C=C(NCc2ccc(Cl)c(Cl)c2)CC1
EC50 [1]: > 20 µM (not active)
EC50 [4]: > 20 µM (not active)

CCc1nnc(NS(=O)(=O)c2ccc(/N=C/c3c(C)[nH]n(-c4cccc(Cl)c4)c3=O)cc2)s1
IC50 (Leucine aminopeptidase): 11.3 µM (active)

O=C(N/N=C/c1ccc([N+](=O)[O-])o1)c1ccc(O)cc1 [NIFUROXAZIDE]
AC50 [7]: 5.2 µM (active)
AC50 [8]: > 380 µM (inactive)
EC50 (Protein RecA): > 380 µM (inactive)
AC50 (INS1): 5.18 µM (active)

COC(=O)[C@]1(C)CCC[C@@]2(C)C3CC[C@@]4(C)C[C@]3(CCC21)CC(=O)N4Cc1ccc(OC)cc1 (some centres undefined)
AC50 [9]: 8.16 µM (active)
AC50 [10]: > 70 µM (inactive)
AC50 [11]: 10.6 µM (active)

Cc1ccc(C2C3CSCC=C3C(C#N)=C(N)C2(C#N)C#N)cc1 (centres undefined)
EC50 [12]: > 160 µM (inactive)
EC50 [13]: > 38 µM (not active)
EC50 [1]: 17.4 µM (active)
EC50 [4]: > 20 µM (not active)

O=C(NC1CCCCC1)C1CCN(c2nnnn2-c2ccccc2)CC1
IC50 (Prothrombin): > 50 µM (not active)

Source: ChEMBL document CHEMBL1201862, “PubChem BioAssay data set” (2004)
